Experimental data as given in patent EP1484329A1, “Indole derivatives with apoptosis inducing activity” (Zentaris GmbH, priority 2003, dated 2004).
Values after ≈ are worked out from the molar mass of the structure shown. Where a name gives a salt, the structure may show the parent alone. Read-outs that look alike come from different tables or passages of the source.

Legend:
HT29 = test: XTT proliferation assay, HT29; type: cell-based, human; conditions: for EC50: Homo sapiens, HT-29, HT29, read-out: XTT Proliferationsassay, EC50 HT29
Description: (§1) Die Substanzen 1,2, 4-6 wurden in einem Proliferationstest an etablierten Tumorzelllinien auf ihre anti-proliferative Aktivität hin untersucht (D.A. Scuderio et al. Cancer Res. 1988, 48, 4827-4833). Der verwendete Test bestimmt die zelluläre Dehydrogenase-Aktivität und ermöglicht eine Bestimmung der Zellvitalität und indirekt der Zellzahl. Bei den verwendeten Zelllinien handelt es sich um die humane Cervixkarzinom Zelllinie KB/HeLa (ATCC CCL17), die ovariale Adenokarzinomzelllinie SKOV-3 (ATCC HTB77), die humane Glioblastom Zelllinie SF-268 (NCI 503138) und die Lungenkarzinom Zelllinie NCI-H460 (NCI 503473). Des weiteren wurde zur Untersuchung der Zellzyklus-spezifischen Wirkung der Substanz ein RKOp27 Zellsystem verwendet (M. Schmidt et al. Oncogene19(20):2423-9, 2000). Bei RKO handelt es sich um eine humane Kolonkarzinomlinie, in der der Zellzyklusinhibitor p27 ^kip1 mittels des Ecdyson Expressionssystems induziert zur Expression gebracht und zu einem Zellzyklusarrest spezifisch in G2 geführt werden kann. Eine unspezifisch wirkende Substanz hemmt die Proliferation unabhängig davon, ob die RKO Zelle in G1 oder G2 arretiert ist oder nicht. Zellzyklus-spezifische Substanzen wie beispielsweise Tubulininhibitoren sind hingegen nur dann zytotoxisch, wenn Zellen nicht arretiert sind und der Zellzyklus durchlaufen wird. In Tabelle 1 ist die zytotoxische bzw. wachstumshemmende Aktivität der beschriebenen Verbindungen mit / ohne Expression von p27^kip1gezeigt. Die getesteten Verbindungen zeigten im induzierten Zustand von p27^kiP1 keine zytotoxische Aktivität. Die Ergebnisse zeigen eine sehr potente Hemmung der Proliferation ausgewählter Tumorzelllinien durch die genannten Substanzen. Tabelle 1:
(§2) Zur weiteren Charakterisierung wurden die Substanzen 1-6 an einem Panel von 7 humanen Tumorzelllinien auf ihre anti-proliferative Wirkung hin untersucht. Bei den untersuchten Zelllinien handelt es sich um die humanen Glioma Zelllinien A172 (ATCC CRL-1620) und U118 (ATCC HTB-15), die humane Lungenkarzinom Zelllinie A549, das humane epidermoide Karzinom A431 (ATCC CRL-2592), die humanen Prostatakarzinom Zelllinien DU145 (ATCC HTB-81) und PC3 (ATCC CRL-1435) und die humane Kolon Adenokarzinomzelllinie HT29 (ATCC HTB-38). Es handelt sich hierbei um sehr gut charakterisierte, etablierte Zelllinien, die von ATCC, ECACC bzw. NCI erhalten und in Kultur genommen wurden. Die in Tab. […]

A549 = test: XTT proliferation assay, A549; type: cell-based, human; conditions: for EC50: Homo sapiens, A549, A549, read-out: XTT Proliferationsassay, EC50 A549
Description: as §1, §2

A431 = test: XTT proliferation assay, A431; type: cell-based, human; conditions: for EC50: Homo sapiens, A-431, A431, read-out: XTT Proliferationsassay, EC50 A431
Description: as §1, §2

DU145 = test: XTT proliferation assay, DU145; type: cell-based, human; conditions: for EC50: Homo sapiens, DU-145, DU145, read-out: XTT Proliferationsassay, EC50 DU145
Description: as §1, §2

PC3 = test: XTT proliferation assay, PC3; type: cell-based, human; conditions: for EC50: Homo sapiens, PC-3, PC3, read-out: XTT Proliferationsassay, EC50 PC3
Description: as §1, §2

A172 = test: XTT proliferation assay, A172; type: cell-based, human; conditions: for EC50: Homo sapiens, A 172, A172, read-out: XTT Proliferationsassay, EC50 A172
Description: as §1, §2

U118MG = test: XTT proliferation assay, U118MG; type: cell-based; conditions: Homo sapiens, U-118-MG; read-out: XTT Proliferationsassay, EC50 U118MG
Description: as §1, §2

Rindertubulin = test: Inhibition of tubulin polymerisation in vitro; type: biochemical, Rind; conditions: Tubulin with 30% MAPs, mean of two independent experiments
Description: In diesem Test wird durch Zyklen von Polymerisation und Depolymerisation aufgereinigtes Tubulin eingesetzt, welches durch Zugabe von GTP und Erwärmung zur Polymerisation gebracht wird. […]

KB/HeLa = test: XTT proliferation assay, KB/HeLa; type: cell-based; conditions: Homo sapiens, read-out: XTT Proliferationsassay, EC50 KB/Hela
Description: as §1, with “Substanzen.” for “Substanzen. Tabelle 1:”

SKOV-3 = test: XTT proliferation assay, SKOV-3; type: cell-based; conditions: Homo sapiens, SK-OV-3; read-out: XTT Proliferationsassay, EC50 SKOV3
Description: as §1, with “Substanzen.” for “Substanzen. Tabelle 1:”

SF-268 = test: XTT proliferation assay, SF-268; type: cell-based; conditions: Homo sapiens, read-out: XTT Proliferationsassay, EC50 SF-268
Description: as §1, with “Substanzen.” for “Substanzen. Tabelle 1:”

NCI-H460 = test: XTT proliferation assay, NCI-H460; type: cell-based; conditions: Homo sapiens, read-out: XTT Proliferationsassay, EC50 NCI-H460
Description: as §1, with “Substanzen.” for “Substanzen. Tabelle 1:”

RKOp27 = test: XTT proliferation assay, RKOp27 cell system with / without induced p27kip1 expression; type: cell-based; conditions: Homo sapiens
Description: as §1, with “Substanzen.” for “Substanzen. Tabelle 1:”

LT12 = test: XTT proliferation assay, LT12 (wild type); type: cell-based; conditions: Rattus norvegicus, LT12; read-out: XTT Proliferationsassay, EC50 LT12
Description: as §1
(§3) Zur weiteren Charakterisierung wurden die Substanzen 1,2,4-6 gegenüber multi drug resistenten Zelllinien im Vergleich zu den nicht-resistenten Wildtypzelllinien untersucht.
(§4) Bei den untersuchten Zelllinien handelt es sich um die murine L1210, die akute myeloische Leukaemie Zelllinie LT12 und um die resistenten Linien L1210/mdr und LT12/mdr. Außerdem wurden die murine P388 Zelllinie (methyl-cholanthreneinduced lymphoid neoplasm) sowie die Doxorubicin-resistente P388 als Testsysteme herangezogen.

LT12mdr = test: XTT proliferation assay, LT12mdr (resistant); type: cell-based; conditions: read-out: XTT Proliferationsassay, EC50 LT12mdr
Description: as §1, §3, §4

L1210 = test: XTT proliferation assay, L1210 (wild type); type: cell-based, murine; conditions: Mus musculus, L1210; read-out: XTT Proliferationsassay, EC50 L1210
Description: as §1, §3, §4

L1210VCR = test: XTT proliferation assay, L1210VCR (resistant); type: cell-based, murine; conditions: Mus musculus; read-out: XTT Proliferationsassay, EC50 L1210VCR
Description: as §1, §3, §4

P388 = test: XTT proliferation assay, P388 (wild type); type: cell-based, murine; conditions: Mus musculus, P388; read-out: XTT Proliferationsassay, EC50 P388
Description: as §1, §3, §4

P388ADR = test: XTT proliferation assay, P388ADR (doxorubicin-resistant); type: cell-based, murine; conditions: Mus musculus, P388/ADR; read-out: XTT Proliferationsassay, EC50 P388ADR
Description: as §1, §3, §4

[1] = RKOP27, without expression of p27kip1, read-out: XTT Proliferationsassay, EC50 RKOP27
[2] = RKOP27 ind., p27kip1 expression induced (cells arrested), read-out: XTT Proliferationsassay, EC50 RKOP27 ind.

Row | SMILES | EC50 (U118MG) [µg/mL] | Hemmung der Tubulin-Polymerisation, EC50 (Rindertubulin) [µg/mL] | EC50 (KB/HeLa) [µg/mL] | EC50 (SKOV-3) [µg/mL] | EC50 (SF-268) [µg/mL] | EC50 (NCI-H460) [µg/mL] | EC50 (RKOp27; [1]) [µg/mL] | EC50 (RKOp27; [2]) [µg/mL] | EC50 (HT29) [µg/mL] | EC50 (A549) [µg/mL] | EC50 (A431) [µg/mL] | EC50 (DU145) [µg/mL] | EC50 (PC3) [µg/mL] | EC50 (A172) [µg/mL] | EC50 (LT12) [µg/mL] | EC50 (LT12mdr) [µg/mL] | EC50 (L1210) [µg/mL] | EC50 (L1210VCR) [µg/mL] | EC50 (P388) [µg/mL] | EC50 (P388ADR) [µg/mL] | other results
1 | Cc1ccc2cc(NC(=O)C(=O)c3cn(Cc4ccc(Cl)cc4)c4ccccc34)ccc2n1 [Verbindung 3, 6-{2-[1-(4-Chlor-benzyl)-1 H-indol-3-yl]-2-oxo-acetylamino}-2-methyl-chinolin Hydrochlorid, reference compound] | 0.142 | – | – | – | – | – | – | – | – | – | – | – | – | – | – | – | – | – | – | – | XTT Proliferationsassay, EC50 HT29 (HT29; HT29, listed as 3 (V)): 0.219 µg/mL; XTT Proliferationsassay, EC50 A549 (A549; A549, listed as 3 (V)): 0.405 µg/mL; XTT Proliferationsassay, EC50 A431 (A431; A431, listed as 3 (V)): 0.075 µg/mL; XTT Proliferationsassay, EC50 DU145 (DU145; DU145, listed as 3 (V)): 0.426 µg/mL; XTT Proliferationsassay, EC50 PC3 (PC3; PC3, listed as 3 (V)): 0.165 µg/mL; XTT Proliferationsassay, EC50 A172 (A172; A172, listed as 3 (V)): 0.171 µg/mL
2 | CC[C@]1(O)C[C@H]2CN(CCc3c([nH]c4ccccc34)[C@@](C(=O)OC)(c3cc4c(cc3OC)N(C=O)[C@H]3[C@@](O)(C(=O)OC)[C@H](OC(C)=O)[C@]5(CC)C=CCN6CC[C@]43[C@@H]65)C2)C1 [vincristine, reference compound] | – | 0.35 | – | – | – | – | – | – | – | – | – | – | – | – | – | – | – | – | – | – | –
3 | Cc1ccc2cc(NC(=O)C(=O)c3cn(Cc4ccc(Cl)cc4)c4ccccc34)ccc2n1 [Verbindung 1, 2-[1-(4-Chlor-benzyl)-1 H-indol-3-yl]-N-(2-methyl-chinolin-6-yl)-2-oxo-acetamid, reference compound] | – | – | 0.183 (≈ 0.403 µM) | 0.174 (≈ 0.383 µM) | 0.261 (≈ 0.575 µM) | 0.344 (≈ 0.758 µM) | 0.23 (≈ 0.507 µM) | > 3.16 | 0.266 (≈ 0.586 µM) | 0.304 (≈ 0.67 µM) | 0.076 (≈ 0.167 µM) | 0.329 (≈ 0.725 µM) | 0.199 (≈ 0.438 µM) | 0.165 (≈ 0.363 µM) | 0.133 (≈ 0.293 µM) | 0.218 (≈ 0.48 µM) | 0.233 (≈ 0.513 µM) | 0.304 (≈ 0.67 µM) | 0.13 (≈ 0.286 µM) | 0.212 (≈ 0.467 µM) | Hemmung der Tubulin-Polymerisation, EC50 (Rindertubulin; listed as 1 (V)): 1.16 µg/mL
4 | O=C(Nc1ccc2[nH]ncc2c1)C(=O)c1cn(Cc2ccc(Cl)cc2)c2ccccc12 [Verbindung 6, 2-[1-(4-Chlor-benzyl)-1H-indol-3-yl]-N-(1H-indazol-5-yl)-2-oxo-acetamid] | 0.097 (≈ 0.226 µM) | 1.26 | 0.335 (≈ 0.781 µM) | 0.144 (≈ 0.336 µM) | > 3.16 | 0.233 (≈ 0.543 µM) | 0.148 (≈ 0.345 µM) | > 3.16 | 0.059 (≈ 0.138 µM) | 0.323 (≈ 0.753 µM) | 0.07 (≈ 0.163 µM) | 0.506 (≈ 1.18 µM) | 0.093 (≈ 0.217 µM) | 0.342 (≈ 0.797 µM) | 0.084 (≈ 0.196 µM) | 0.093 (≈ 0.217 µM) | 0.246 (≈ 0.574 µM) | 0.241 (≈ 0.562 µM) | 0.175 (≈ 0.408 µM) | 0.231 (≈ 0.539 µM) | –
5 | O=C1c2c(O)ccc(O)c2C(=O)c2c(NCCNCCO)ccc(NCCNCCO)c21 [mitoxantron, reference compound] | – | – | – | – | – | – | – | – | – | – | – | – | – | – | – | – | – | – | – | 0.608 (≈ 1.37 µM) | –
